Measurements published in ChEMBL document CHEMBL1201862, “PubChem BioAssay data set” (2004).
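Five concentrations, 48 hours, 96-well plates. GI50 is the concentration that inhibits growth by half.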 Calls of active or inactive are those of the source. Rule as the data show it: active = GI50 up to about 1.1 µM and inactive = higher.

Columns and labels:
Assay in all cases: NCI-60 cell line screen, 48 h
SK-MEL-28 = test system: SK-MEL-28
A549 = test system: A549
786-0 = test system: 786-0
A498 = test system: A498
HCC 2998 = test system: HCC 2998
BT-549 = test system: BT-549
OVCAR-3 = test system: OVCAR-3
K562 = test system: K562
UO-31 = test system: UO-31
LOX IMVI = test system: LOX IMVI
EKVX = test system: EKVX
CCRF-CEM = test system: CCRF-CEM
MDA-MB-435 = test system: MDA-MB-435
ACHN = test system: ACHN
MDA-MB-231 = test system: MDA-MB-231
MOLT-4 = test system: MOLT-4
KM12 = test system: KM12
HCT-15 = test system: HCT-15
SNB-19 = test system: SNB-19
OVCAR-8 = test system: OVCAR-8
RXF 393 = test system: RXF 393
NCI/ADR-RES = test system: NCI/ADR-RES
TK-10 = test system: TK-10
Malme-3M = test system: Malme-3M
NCI-H460 = test system: NCI-H460
NCI-H522 = test system: NCI-H522
Hs-578T = test system: Hs-578T
MCF7 = test system: MCF7
HCT-116 = test system: HCT-116
NCI-H226 = test system: NCI-H226
HL-60 = test system: HL-60
HT-29 = test system: HT-29
MDA-N = test system: MDA-N
SN12C = test system: SN12C
SW-620 = test system: SW-620
T47D = test system: T47D
HOP-62 = test system: HOP-62
SF-295 = test system: SF-295
SK-OV-3 = test system: SK-OV-3
NCI-H23 = test system: NCI-H23
SK-MEL-5 = test system: SK-MEL-5
UACC-257 = test system: UACC-257
OVCAR-4 = test system: OVCAR-4
CAKI-1 = test system: CAKI-1
M14 = test system: M14
DU-145 = test system: DU-145
UACC-62 = test system: UACC-62
SNB-75 = test system: SNB-75
SF-268 = test system: SF-268
COLO 205 = test system: COLO 205
OVCAR-5 = test system: OVCAR-5
SF-539 = test system: SF-539
U-251 = test system: U-251
PC-3 = test system: PC-3
IGROV-1 = test system: IGROV-1
SK-MEL-2 = test system: SK-MEL-2
HOP-92 = test system: HOP-92
RPMI-8226 = test system: RPMI-8226

Measured: GI50

Cc1nc(C)c(Cc2ccccc2)o1
> 100 µM: HCT-15
inactive: SK-MEL-28 > 100 µM | A549 > 100 µM | 786-0 > 100 µM | A498 > 100 µM | HCC 2998 > 100 µM | BT-549 > 100 µM | OVCAR-3 98.2 µM | K562 > 100 µM | UO-31 47.6 µM | LOX IMVI > 100 µM | EKVX > 100 µM | CCRF-CEM > 100 µM | MDA-MB-435 > 100 µM | ACHN > 100 µM | MDA-MB-231 > 100 µM | MOLT-4 > 100 µM | KM12 > 100 µM | SNB-19 > 100 µM | OVCAR-8 > 100 µM | RXF 393 > 100 µM | NCI/ADR-RES > 100 µM | TK-10 > 100 µM | Malme-3M > 100 µM | NCI-H460 > 100 µM | NCI-H522 > 100 µM | Hs-578T > 100 µM | MCF7 > 100 µM | HCT-116 > 100 µM | NCI-H226 > 100 µM | HL-60 > 100 µM | HT-29 > 100 µM | MDA-N > 100 µM | SN12C > 100 µM | SW-620 > 100 µM | T47D > 100 µM | HOP-62 > 100 µM | SF-295 > 100 µM | SK-OV-3 > 100 µM | NCI-H23 > 100 µM | SK-MEL-5 > 100 µM | UACC-257 > 100 µM | OVCAR-4 > 100 µM | CAKI-1 > 100 µM | M14 > 100 µM | DU-145 > 100 µM | UACC-62 > 100 µM | SNB-75 41.4 µM | SF-268 > 100 µM | COLO 205 > 100 µM | OVCAR-5 > 100 µM | SF-539 > 100 µM | U-251 > 100 µM | PC-3 > 100 µM | IGROV-1 > 100 µM

CC(Cl)CN1c2ccccc2Sc2ccc(Cl)cc21 (stereo not drawn)
inactive: SK-MEL-28 > 10 µM | A549 > 10 µM | 786-0 > 10 µM | A498 > 10 µM | HCC 2998 > 10 µM | BT-549 > 10 µM | OVCAR-3 > 10 µM | K562 > 10 µM | UO-31 > 10 µM | LOX IMVI > 10 µM | EKVX > 10 µM | CCRF-CEM > 10 µM | MDA-MB-435 > 10 µM | ACHN > 10 µM | MDA-MB-231 > 10 µM | MOLT-4 > 10 µM | KM12 > 10 µM | SK-MEL-2 > 10 µM | SNB-19 > 10 µM | OVCAR-8 > 10 µM | RXF 393 > 10 µM | NCI/ADR-RES > 10 µM | TK-10 > 10 µM | Malme-3M > 10 µM | NCI-H460 > 10 µM | NCI-H522 > 10 µM | Hs-578T > 10 µM | MCF7 > 10 µM | HCT-116 > 10 µM | NCI-H226 > 10 µM | HL-60 > 10 µM | HT-29 > 10 µM | MDA-N > 10 µM | SN12C > 10 µM | SW-620 > 10 µM | T47D > 10 µM | HOP-62 > 10 µM | SF-295 > 10 µM | SK-OV-3 > 10 µM | NCI-H23 > 10 µM | SK-MEL-5 > 10 µM | UACC-257 > 10 µM | OVCAR-4 > 10 µM | CAKI-1 > 10 µM | M14 > 10 µM | DU-145 > 10 µM | HOP-92 > 10 µM | RPMI-8226 > 10 µM | UACC-62 > 10 µM | SNB-75 > 10 µM | SF-268 > 10 µM | COLO 205 > 10 µM | OVCAR-5 > 10 µM | SF-539 > 10 µM | U-251 > 10 µM | PC-3 > 10 µM | IGROV-1 > 10 µM
> 10 µM: HCT-15
